For this test, the system named is P388 leukemia ip, CD2F1 mice, survival T/C. The test is described as follows: NCI In Vivo Anticancer Drug Screen. Data for tumor model P388 Leukemia (intraperitoneal) in CD2F1 (CDF1) mice. To be noted: endpoint: median survival time, higher = longer survival. In outline: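 Mice carrying the transplanted tumor received test compound or vehicle. Survival was recorded in each group, and the value is the treated-group measurement divided by that of the vehicle-treated control group.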

[1] abbreviates: dose: 50.0 mg/kg/injection, schedule: Q01DX009 (ip), vehicle: saline with Tween-80.
[2] abbreviates: dose: 100.0 mg/kg/injection, schedule: Q01DX009 (ip), vehicle: saline with Tween-80.
Setting [3] is: dose: 200.0 mg/kg/injection, schedule: Q01DX009 (ip), vehicle: saline with Tween-80.
Where [4] appears, read: dose: 50.0 mg/kg/injection, schedule: Q01DX009 (ip), vehicle: Klucel (hydroxypropylcellulose) (HPC).
Setting [5] is: dose: 100.0 mg/kg/injection, schedule: Q01DX009 (ip), vehicle: Klucel (hydroxypropylcellulose) (HPC).
The mark [6] stands for this setting: dose: 60.0 mg/kg/injection, schedule: Q01DX005 (ip), vehicle: Klucel (hydroxypropylcellulose) (HPC).
Where [7] appears, read: dose: 50.0 mg/kg/injection, schedule: Q01DX005 (ip), vehicle: Klucel (hydroxypropylcellulose) (HPC).
Setting [8] is: dose: 100.0 mg/kg/injection, schedule: Q01DX005 (ip), vehicle: Klucel (hydroxypropylcellulose) (HPC).
The mark [9] stands for this setting: dose: 12.5 mg/kg/injection, schedule: Q01DX005 (ip), vehicle: saline with Tween-80.
Where [10] appears, read: dose: 25.0 mg/kg/injection, schedule: Q01DX005 (ip), vehicle: saline with Tween-80.
The mark [11] stands for this setting: dose: 50.0 mg/kg/injection, schedule: Q01DX005 (ip), vehicle: saline with Tween-80.
Where [12] appears, read: dose: 100.0 mg/kg/injection, schedule: Q01DX005 (ip), vehicle: saline with Tween-80.
[13] abbreviates: dose: 200.0 mg/kg/injection, schedule: Q01DX005 (ip), vehicle: saline with Tween-80.

Structures are written as SMILES. Several values for one entry are separate records, joined by “and”; a condition that tells them apart may be missing. Equal values may be shown once. Inconclusive results and toxic doses are left out.

Turning to `CCOc1cc2c(=O)[nH]cnc2c(OCC)c1OCC`, the T/C reads like this: under setting [1], 106 % of control; under setting [2], 100 % of control; under setting [3], 98 % of control.

On to `O=C(Nc1ncc([N+](=O)[O-])s1)C(Cl)Cl`, for which the T/C was 118 % of control under setting [4] and 111 % of control under setting [5].

For `C=C(C)[C@H]1O[C@H]2CC[C@@]3(C)[C@@](O)(CC[C@H]4[C@@H]5OC(C)(C)[C@H]6C[C@@H]7C(=C)Cc8c(Cl)cc9[nH]c(c5c9c8C76O)[C@@]43C)[C@@]23O[C@H]3[C@H]1O` (stereo partly drawn), the T/C by setting is: (dose: 0.5 mg/kg/injection, schedule: Q01DX005 (ip), vehicle: Klucel (hydroxypropylcellulose) (HPC)) 101 % of control; (dose: 1.0 mg/kg/injection, schedule: Q01DX005 (ip), vehicle: Klucel (hydroxypropylcellulose) (HPC)) 97 % of control; (dose: 2.0 mg/kg/injection, schedule: Q01DX005 (ip), vehicle: Klucel (hydroxypropylcellulose) (HPC)) 87 % of control; (dose: 3.75 mg/kg/injection, schedule: Q01DX005 (ip), vehicle: Klucel (hydroxypropylcellulose) (HPC)) 107 % of control; (dose: 4.0 mg/kg/injection, schedule: Q01DX005 (ip), vehicle: Klucel (hydroxypropylcellulose) (HPC)) 93 % of control; (dose: 7.5 mg/kg/injection, schedule: Q01DX005 (ip), vehicle: Klucel (hydroxypropylcellulose) (HPC)) 115 % of control. Further, the T/C is 106 % of control (dose: 15.0 mg/kg/injection, schedule: Q01DX005 (ip), vehicle: Klucel (hydroxypropylcellulose) (HPC)); 107 % of control (dose: 30.0 mg/kg/injection, schedule: Q01DX005 (ip), vehicle: Klucel (hydroxypropylcellulose) (HPC)); 107 % of control under setting [6].

With `O=c1[nH]cnc2nc(Cl)[nH]c12`, the T/C reads like this: under setting [7], 98 % of control; under setting [8], 98 % of control; (dose: 200.0 mg/kg/injection, schedule: Q01DX005 (ip), vehicle: Klucel (hydroxypropylcellulose) (HPC)) 95 % of control.

Take `C/C(=N\NC(=S)N(C)C)c1cnccn1`: the T/C is 102 % of control under setting [9]; 100 % of control under setting [10]; 98 % of control and 101 % of control under setting [11].

In the case of `CCCCC(CCCCCC(CCCC)C1NC(C)Cc2cc(OC)c(OC)cc21)C1NC(C)Cc2cc(OC)c(OC)cc21` (stereo not drawn), the T/C is 99 % of control (dose: 6.25 mg/kg/injection, schedule: Q01DX005 (ip), vehicle: saline); 105 % of control (dose: 12.5 mg/kg/injection, schedule: Q01DX005 (ip), vehicle: saline); 90 % of control (dose: 25.0 mg/kg/injection, schedule: Q01DX005 (ip), vehicle: saline).

With `CCn1c(-c2ccccc2)nc(=S)c(C(=O)c2ccccc2)c1SC`, the T/C (dose: 100.0 mg/kg/injection, schedule: Q04DX003 (ip), vehicle: Klucel (hydroxypropylcellulose) (HPC)) was 98 % of control; the T/C (dose: 200.0 mg/kg/injection, schedule: Q04DX003 (ip), vehicle: Klucel (hydroxypropylcellulose) (HPC)) was 100 % of control; the T/C (dose: 400.0 mg/kg/injection, schedule: Q04DX003 (ip), vehicle: Klucel (hydroxypropylcellulose) (HPC)) is 100 % of control.

For `N/C(=N\O)c1cn(C2OC(CO)C(O)C2O)c2ncnc(N)c12` (stereo not drawn), the T/C (dose: 2.5 mg/kg/injection, schedule: Q01DX009 (ip), vehicle: saline sonified) was 154 % of control and the T/C (dose: 5.0 mg/kg/injection, schedule: Q01DX009 (ip), vehicle: saline sonified) was 159 % of control.

With `N=Cc1c(O)n(C2CCCCC2)c(=O)[nH]c1=O`, the T/C by setting is: under setting [2], 90 % of control; (dose: 400.0 mg/kg/injection, schedule: Q01DX009 (ip), vehicle: saline with Tween-80) 95 % of control.

With `ClCCN(CCCl)CCCN1c2ccccc2Sc2ccccc21`, the T/C (dose: 3.12 mg/kg/injection, schedule: Q01DX009 (ip), vehicle: saline with Tween-80) is 122 % of control.

As to `O=c1[nH]c2cc(Cl)ccc2nc1C1=C(O)c2ccccc2C1`, the T/C (dose: 60.0 mg/kg/injection, schedule: Q01DX005 (ip), vehicle: saline with Tween-80) is 89 % of control; the T/C (dose: 120.0 mg/kg/injection, schedule: Q01DX005 (ip), vehicle: saline with Tween-80) was 89 % of control; the T/C (dose: 240.0 mg/kg/injection, schedule: Q01DX005 (ip), vehicle: saline with Tween-80) is 110 % of control.

`CCC(C)C(NC=O)C(=O)O` (stereo not drawn): the T/C reads like this: under setting [11], 93 % of control; under setting [12], 100 % of control; under setting [13], 100 % of control.

On to `COc1ncc(Br)cc1C(=O)NCCc1ccc(S(=O)(=O)NC(=O)NC2CCCCC2)cc1`, for which the T/C was 99 % of control under setting [1] and 92 % of control under setting [2].

Turning to `COc1ccc(C2[C@@H]3CCc4ccccc4C3=NN2C(C)=O)cc1` (stereo partly drawn), the T/C is 93 % of control under setting [11], 91 % of control under setting [12] and 87 % of control under setting [13].

With `Cc1cc(C)n2nc(CC#N)c(C#N)c2n1`, the T/C runs as follows: (dose: 12.5 mg/kg/injection, schedule: Q01DX009 (ip), vehicle: Klucel (hydroxypropylcellulose) (HPC)) 109 % of control; (dose: 25.0 mg/kg/injection, schedule: Q01DX009 (ip), vehicle: Klucel (hydroxypropylcellulose) (HPC)) 100 % of control and 107 % of control and 97 % of control; under setting [4], 100 % of control and 105 % of control and 109 % of control; under setting [5], 123 % of control and 94 % of control and 97 % of control.

`CCOC(=O)c1cn2ccccc2c(C(=O)c2cccnc2)c1=N`: the T/C by setting is: (dose: 100.0 mg/kg/injection, schedule: Q04DX003 (ip), vehicle: saline) 91 % of control; (dose: 200.0 mg/kg/injection, schedule: Q04DX003 (ip), vehicle: saline) 96 % of control; (dose: 400.0 mg/kg/injection, schedule: Q04DX003 (ip), vehicle: saline) 96 % of control.

As for `NC(=O)c1cnc(N)nc1`, the T/C was 93 % of control (dose: 6.25 mg/kg/injection, schedule: Q01DX009 (ip), vehicle: saline with Tween-80); 91 % of control (dose: 12.5 mg/kg/injection, schedule: Q01DX009 (ip), vehicle: saline with Tween-80); 98 % of control (dose: 25.0 mg/kg/injection, schedule: Q01DX009 (ip), vehicle: saline with Tween-80); 94 % of control under setting [1]; 98 % of control under setting [2]; 106 % of control under setting [3].

With `COC(=O)c1[nH]c(=O)c(C#N)c(C(=O)OC)c1C(=O)c1ccc(Cl)c(Cl)c1`, the T/C was 100 % of control under setting [6]; 107 % of control (dose: 120.0 mg/kg/injection, schedule: Q01DX005 (ip), vehicle: Klucel (hydroxypropylcellulose) (HPC)); 100 % of control (dose: 240.0 mg/kg/injection, schedule: Q01DX005 (ip), vehicle: Klucel (hydroxypropylcellulose) (HPC)).

As for `O=S(=O)(c1ccc(NC(=S)N2CCOCC2)cc1)N1CCCCC1`, the T/C by setting is: under setting [4], 100 % of control; under setting [5], 96 % of control; (dose: 200.0 mg/kg/injection, schedule: Q01DX009 (ip), vehicle: Klucel (hydroxypropylcellulose) (HPC)) 97 % of control.

For the compound `Cc1ccc(-c2cc(N)n(-c3nnc(-c4ccccc4)c(-c4ccccc4)n3)n2)cc1`, the T/C under setting [11] is 105 % of control, the T/C under setting [12] is 105 % of control and the T/C under setting [13] was 93 % of control.

On to `CCN(CC)CCOC(=O)C(OCCCc1ccccc1)(c1ccccc1)c1ccccc1`, for which the T/C reads like this: under setting [7], 111 % of control; under setting [8], 112 % of control.

With `S=c1cc(S)sc2c1c(=S)sc1nc3ccccn3c(=S)c12`, the T/C runs as follows: (dose: 12.5 mg/kg/injection, schedule: Q01DX005 (ip), vehicle: Klucel (hydroxypropylcellulose) (HPC)) 96 % of control; (dose: 25.0 mg/kg/injection, schedule: Q01DX005 (ip), vehicle: Klucel (hydroxypropylcellulose) (HPC)) 99 % of control and 98 % of control; under setting [7], 96 % of control; under setting [8], 107 % of control and 94 % of control.

On to `NC=NC(CCC(=O)O)C(=O)O` (stereo not drawn), for which the T/C (dose: 50.0 mg/kg/injection, schedule: Q01DX005 (ip), vehicle: saline) is 106 % of control and 92 % of control; the T/C (dose: 100.0 mg/kg/injection, schedule: Q01DX005 (ip), vehicle: saline) is 99 % of control.

As to `COc1cc(Br)c(CC(NC(=O)c2ccccc2)c2ccc(OC)c(OC)c2OC)cc1OC` (stereo not drawn), under setting [13], the T/C is 91 % of control.

Turning to `ON(C(=S)Nc1ccc(Cl)cc1)c1ccccc1`, the T/C is 104 % of control under setting [9]; 100 % of control under setting [10]; 95 % of control and 98 % of control under setting [11]; 94 % of control under setting [12]; 97 % of control under setting [13].

(Values after PubChem BioAssay AID330 (DTP/NCI, 2004).)
